Assay results published in patent publication US20260070945A1, “MACROCYCLIC IMMUNOMODULATORS” (Bristol-Myers Squibb Company, priority 2022, published 2026).
Where a SMILES comes first, the peptide text is derived from it. Bridges are numbered along the chain shown (N, C = ends). [ ]: non-standard residue; d: D form. The star is where a group is joined. ξ: configuration not given here. Phe(4-COOH) = N[C@@H](Cc1ccc(C(=O)O)cc1)C(=O)O; Bip = N[C@@H](Cc1ccc(-c2ccccc2)cc1)C(=O)O; 4Pal = N[C@@H](Cc1ccncc1)C(=O)O; Cha = N[C@@H](CC1CCCCC1)C(=O)O; Ile(3ξ) = CCC(C)[C@H](N)C(=O)O; Thr(3ξ) = CC(O)[C@H](N)C(=O)O; Carboxymethyl = O=C(O)C*; NMeA = CN[C@@H](C)C(=O)O; Orn = NCCC[C@H](N)C(=O)O; Aun = NCCCCCCCCCCC(=O)O; Dab = NCC[C@H](N)C(=O)O; Dap = NC[C@H](N)C(=O)O; AEEA = NCCOCCOCC(=O)O

molecular target: T1, PD-1/PD-L1 interaction (PE-labeled human PD-L1-Ig binding to Jurkat cell line over-expressing human PD-1) (Homo sapiens, UniProt Q15116); assay: Jurkat-PD-1 Cell Binding High-Content Screening Assay (CBA); conditions: Jurkat-hPD-1 cells, PE-labeled PD-L1-Ig 20 nM final; read-out: Jurkat HPD1 PDL1 IC50
T1 construct: expressed in transfected cells; host or cells: Jurkat
Procedure, shortened: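 Read-out: high-content imaging of cell-bound PE fluorescence, with Hoechst 33342 nuclear counterstain after paraformaldehyde fixation. Before labeled ligand (20 nM final, 1 h) was added, compound sat on the cells for 2 h at 37 °C in DMEM/10% FCS.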

T1 sequence (Q15116 25-288): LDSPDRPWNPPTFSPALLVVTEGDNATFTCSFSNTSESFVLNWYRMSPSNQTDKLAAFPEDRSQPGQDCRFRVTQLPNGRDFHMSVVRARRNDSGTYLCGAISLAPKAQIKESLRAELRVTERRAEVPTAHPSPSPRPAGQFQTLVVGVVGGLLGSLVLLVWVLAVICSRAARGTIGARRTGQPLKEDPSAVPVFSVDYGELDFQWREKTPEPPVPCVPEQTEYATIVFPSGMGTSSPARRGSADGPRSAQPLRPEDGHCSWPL

Row | Compound | IC50 [nM]
1 | CCC(C)[C@@H]1NC(=O)[C@H](CC(C)C)NC(=O)[C@H](CCN)NC(=O)[C@@H](CC(C)C)NC(=O)[C@H](C)N(C)C(=O)[C@H](C(C)CC)NC(=O)[C@H](Cc2ccc(-c3ccccc3)cc2)NC(=O)[C@H](C(C)CC)NC(=O)[C@H](Cc2c[nH]c3ccccc23)NC(=O)[C@H](CC(=O)O)NC(=O)[C@H](Cc2ccc(OCC(=O)O)cc2)NC(=O)[C@H](C(C)O)NC(=O)CSC[C@@H](C(=O)N[C@H](CC(N)=O)C(=O)NCCOCCOCC(=O)NCCCCCCCCCCC(=O)O)NC(=O)[C@H](CO)NC1=O (stereo partly drawn) [Example 2080] ({CH2CO}-[Thr(3ξ)]Y(Carboxymethyl)DW[Ile(3ξ)][Bip][Ile(3ξ)][NMeA][dL][Dab]L[Ile(3ξ)]SC[dN][AEEA][Aun]-OH; thioether N-14) | 110
2 | CCC(C)[C@@H]1NC(=O)[C@H](CC(C)C)NC(=O)[C@H](CCN)NC(=O)[C@@H](CC(C)C)NC(=O)[C@H](C)N(C)C(=O)[C@H](C(C)CC)NC(=O)[C@H](Cc2ccc(-c3ccccc3)cc2)NC(=O)[C@H](C(C)CC)NC(=O)[C@H](Cc2c[nH]c3ccccc23)NC(=O)[C@H](CC(=O)O)NC(=O)[C@H](Cc2ccc(OCC(=O)O)cc2)NC(=O)[C@H](C(C)O)NC(=O)CSC[C@@H](C(=O)N[C@@H](CN)C(=O)NCCOCCOCC(=O)NCCCCCCCCCCC(=O)O)NC(=O)[C@H](CO)NC1=O (stereo partly drawn) [Example 2081] ({CH2CO}-[Thr(3ξ)]Y(Carboxymethyl)DW[Ile(3ξ)][Bip][Ile(3ξ)][NMeA][dL][Dab]L[Ile(3ξ)]SC[Dap][AEEA][Aun]-OH; thioether N-14) | 206

Other lines, results leading:

Row | IC50 [nM] | Compound
3 | 14.1 | CCC(C)[C@@H]1NC(=O)[C@H](Cc2ccc(-c3ccccc3)cc2)NC(=O)[C@H](C(C)C)NC(=O)[C@H](Cc2c[nH]c3ccccc23)NC(=O)[C@H](CC(=O)O)NC(=O)[C@H](Cc2ccc(O)cc2)NC(=O)[C@H](Cc2ccncc2)NC(=O)CSC[C@@H](C(=O)N[C@@H](C)C(=O)NCCOCCOCC(=O)N[C@@H](CCCN)C(=O)NCCCCCCCCCCC(=O)O)NC(=O)[C@H](C(C)O)NC(=O)[C@H](C(C)C)NC(=O)[C@H](CC2CCCCC2)NC(=O)[C@H](CCN)NC(=O)[C@@H](CC(C)C)NC(=O)[C@H](C)N(C)C1=O (stereo partly drawn) [Example 2077] ({CH2CO}-[4Pal]YDWV[Bip][Ile(3ξ)][NMeA][dL][Dab][Cha]V[Thr(3ξ)]CA[AEEA][Orn][Aun]-OH; thioether N-14)
4 | 12.2 | CCC(C)[C@@H]1NC(=O)[C@H](Cc2ccc(-c3ccccc3)cc2)NC(=O)[C@H](C(C)C)NC(=O)[C@H](Cc2c[nH]c3ccccc23)NC(=O)[C@H](CC(=O)O)NC(=O)[C@H](Cc2ccc(O)cc2)NC(=O)[C@H](Cc2ccncc2)NC(=O)CSC[C@@H](C(=O)N[C@@H](CC(N)=O)C(=O)NCCOCCOCC(=O)N[C@@H](CCCN)C(=O)NCCCCCCCCCCC(=O)O)NC(=O)[C@H](CO)NC(=O)[C@H](C(C)C)NC(=O)[C@H](CC2CCCCC2)NC(=O)[C@H](CCN)NC(=O)[C@@H](CC(C)C)NC(=O)[C@H](C)N(C)C1=O (stereo partly drawn) [Example 2078] ({CH2CO}-[4Pal]YDWV[Bip][Ile(3ξ)][NMeA][dL][Dab][Cha]VSCN[AEEA][Orn][Aun]-OH; thioether N-14)
5 | 11.3 | CCC(C)[C@@H]1NC(=O)[C@H](Cc2ccc(-c3ccccc3)cc2)NC(=O)[C@H](CC(C)C)NC(=O)[C@H](Cc2c[nH]c3ccccc23)NC(=O)[C@H](CC(=O)O)NC(=O)[C@H](Cc2ccc(C(=O)O)cc2)NC(=O)[C@H](Cc2ccc(OCC(=O)O)cc2)NC(=O)CSC[C@@H](C(=O)N[C@@H](CC(N)=O)C(=O)NCCOCCOCC(=O)N[C@@H](CCN)C(=O)NCCCCCCCCCCC(=O)O)NC(=O)[C@H](CO)NC(=O)[C@H](C(C)C)NC(=O)[C@H](CC2CCCCC2)NC(=O)[C@H](CCN)NC(=O)[C@@H](CC(C)C)NC(=O)[C@H](C)N(C)C1=O (stereo partly drawn) [Example 2079] ({CH2CO}-Y(Carboxymethyl)[Phe(4-COOH)]DWL[Bip][Ile(3ξ)][NMeA][dL][Dab][Cha]VSCN[AEEA][Dab][Aun]-OH; thioether N-14)
